These results are taken from patent publication US5002931A, “GRF analogs VII” (The Salk Institute for Biological Studies, priority 1987, dated 1991).

Square brackets hold non-standard residues; d marks the D form. Ends that are not written are not given here. Peptide text beside a SMILES is read from it. NMeY = CN[C@@H](Cc1ccc(O)cc1)C(=O)O; Nle = CCCC[C@H](N)C(=O)O

In this assay the test system is cells of rat pituitary glands. Briefly: in vitro assay of growth hormone release from cultured rat pituitary cells, GH measured by radioimmunoassay. Type of assay: cell-based. To be noted: release of GH at equimolar concentrations, side-by-side with synthetic hpGRF(1-40)-OH standard = 100%; incubation 3 to 4 hours. The protocol: To determine the relative effectiveness of certain representative synthetic peptides to promote the release of growth hormone, in vitro assays are carried out using synthetic hpGRF(1-40)-OH as a standard in side-by-side comparison with equimolar concentrations of the representative analogs which have been synthesized. Cultures are used which include cells of rat pituitary glands removed some three to five days previously. Such cultures are considered optimal for the secretion of growth hormone and are used for the comparative testing, in the general manner described in Vale et al. Endocrinoloqy, 91, 562-572 (1972) and as more particularly described in Vale et al. Endocrinology, 112, 1553-1555 (1983). Incubation with the substance to be tested is carried out for 3 to 4 hours, and aliquots of the culture medium are removed and processed to measure their contents in immunoreactive GH(ir GH) by a well-characterized radioimmunoassay.
Molecule `CCCC[C@H](NC(=O)[C@@H](NC(=O)[C@H](CC(=O)O)NC(=O)[C@H](CCC(N)=O)NC(=O)[C@H](CC(C)C)NC(=O)[C@H](CC(C)C)NC(=O)[C@H](CCCCN)NC(=O)[C@H](CCCNC(=N)N)NC(=O)[C@H](C)NC(=O)[C@H](CO)NC(=O)[C@H](CC(C)C)NC(=O)[C@H](CCC(N)=O)NC(=O)[C@H](C)NC(=O)[C@H](CC(C)C)NC(=O)[C@@H](NC(=O)[C@H](CCCCN)NC(=O)[C@H](CCCNC(=N)N)NC(=O)[C@H](Cc1ccc(O)cc1)NC(=O)[C@H](CO)NC(=O)[C@H](CC(=O)O)NC(=O)[C@@H](NC(=O)[C@H](Cc1ccccc1)NC(=O)[C@@H](NC(=O)[C@H](C)NC(=O)[C@H](CC(=O)O)NC(=O)[C@H](C)NC(=O)[C@H](Cc1ccc(O)cc1)NC)[C@@H](C)CC)[C@@H](C)O)C(C)C)[C@@H](C)CC)C(=O)N[C@@H](CC(N)=O)C(=O)N[C@@H](CCCNC(=N)N)C(N)=O` [[N^a MeTyr^1, Asp^8, Ala^15, Nle^27, Asn^28]-hGRF(1-29)-NH2] (H-[NMeY]ADAIFTDSYRKVLAQLSARKLLQDI[Nle]NR-NH2) showed a Comparison % of 192%.

Molecule `CCCC[C@H](NC(=O)[C@@H](NC(=O)[C@H](CC(=O)O)NC(=O)[C@H](CCC(N)=O)NC(=O)[C@H](CC(C)C)NC(=O)[C@H](CC(C)C)NC(=O)[C@@H](CCCCN)NC(=O)[C@H](CCCNC(=N)N)NC(=O)[C@H](C)NC(=O)[C@H](CO)NC(=O)[C@H](CC(C)C)NC(=O)[C@H](CCC(N)=O)NC(=O)CNC(=O)[C@H](CC(C)C)NC(=O)[C@@H](NC(=O)[C@H](CCCCN)NC(=O)[C@H](CCCNC(=N)N)NC(=O)[C@H](Cc1ccc(O)cc1)NC(=O)[C@H](CO)NC(=O)[C@H](CC(N)=O)NC(=O)[C@@H](NC(=O)[C@H](Cc1ccccc1)NC(=O)[C@@H](NC(=O)[C@H](C)NC(=O)[C@H](CC(=O)O)NC(=O)[C@H](C)NC(=O)[C@H](Cc1ccc(O)cc1)NC)[C@@H](C)CC)[C@@H](C)O)C(C)C)[C@@H](C)CC)C(=O)N[C@@H](CO)C(=O)N[C@@H](CCCNC(=N)N)C(N)=O` [[N^a MeTyr^1, D-Lys^21, Nle^27]-hGRF(1-29)-NH] showed a Comparison % of 172%.

For the molecule `CCCC[C@H](NC(=O)[C@@H](NC(=O)[C@H](CC(=O)O)NC(=O)[C@H](CCC(N)=O)NC(=O)[C@H](CC(C)C)NC(=O)[C@H](CC(C)C)NC(=O)[C@@H](CCCCN)NC(=O)[C@H](CCCNC(=N)N)NC(=O)[C@H](C)NC(=O)[C@H](CO)NC(=O)[C@H](CC(C)C)NC(=O)[C@H](CCC(N)=O)NC(=O)CNC(=O)[C@H](CC(C)C)NC(=O)[C@@H](NC(=O)[C@H](CCCCN)NC(=O)[C@H](CCCNC(=N)N)NC(=O)[C@@H](Cc1ccc(O)cc1)NC(=O)[C@H](CO)NC(=O)[C@H](CC(N)=O)NC(=O)[C@@H](NC(=O)[C@H](Cc1ccccc1)NC(=O)[C@@H](NC(=O)[C@H](C)NC(=O)[C@H](CC(=O)O)NC(=O)[C@H](C)NC(=O)[C@H](Cc1ccc(O)cc1)NC)[C@@H](C)CC)[C@@H](C)O)C(C)C)[C@@H](C)CC)C(=O)N[C@@H](CO)C(=O)N[C@@H](CCCNC(=N)N)C(N)=O` [[N^a MeTyr^1, D-Tyr^10, D-Lys^21, Nle^27]-hGRF(1-29)-NH2], the Comparison % came to 40%.

In turn, `CCCC[C@H](NC(=O)[C@@H](NC(=O)[C@H](CC(=O)O)NC(=O)[C@H](CCC(N)=O)NC(=O)[C@H](CC(C)C)NC(=O)[C@H](CC(C)C)NC(=O)[C@H](CCCCN)NC(=O)[C@H](CCCNC(=N)N)NC(=O)[C@H](C)NC(=O)[C@H](CO)NC(=O)[C@H](CC(C)C)NC(=O)[C@H](CCC(N)=O)NC(=O)[C@H](C)NC(=O)[C@H](CC(C)C)NC(=O)[C@@H](NC(=O)[C@H](CCCCN)NC(=O)[C@H](CCCNC(=N)N)NC(=O)[C@H](Cc1ccc(O)cc1)NC(=O)[C@H](CO)NC(=O)[C@H](CCCCN)NC(=O)[C@@H](NC(=O)[C@H](Cc1ccccc1)NC(=O)[C@@H](NC(=O)[C@H](C)NC(=O)[C@H](CC(=O)O)NC(=O)[C@H](C)NC(=O)[C@H](Cc1ccc(O)cc1)NC)[C@@H](C)CC)[C@@H](C)O)C(C)C)[C@@H](C)CC)C(=O)N[C@@H](CC(N)=O)C(=O)N[C@@H](CCCNC(=N)N)C(N)=O` [[N^a MeTyr^1, Lys^8, Ala^15, Nle^27, Asn^28]-hGRF(1-29)-NH2] (H-[NMeY]ADAIFTKSYRKVLAQLSARKLLQDI[Nle]NR-NH2) returned a Comparison % of 556%.

In turn, “hGRF(1-40)-OH (YADAIFTNSYRKVLGQLSARKLLQDIMSRQQGESNQERGA-OH; UniProt P01286 32-71, looked up, fragment) [synthetic human pancreatic (tumor) GH releasing factor 1-40 free acid, used as standard in the assays, reference compound]” returned a Comparison % of 100%.
